Holding throughout (experiment): Bliss excess, mean over the matrix (fraction); higher = more synergy
Test [1] has as its system CAL-148 (Breast Carcinoma). In short, it runs like this:
(§1)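 Bliss excess equals the observed combination effect minus the expected value EA + EB − EA·EB, where EA and EB are the effects of each agent alone. Combination Emax is the second-highest inhibition within the matrix. Inhibition was scaled from CellTiter-Glo 2.0 luminescence, with 0 set by vehicle wells and 1 by blank wells, after 72 hours of two-drug dosing of cells plated in 1536-well plates.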

Test [2] concerns NCI-H2085 (Non-Small Cell Lung Carcinoma). In short, it runs like this:
as §1

Test [3] concerns Calu-3 (Lung Adenocarcinoma). In short, it runs like this:
as §1

Test [4] has as its system HO-1-N-1 (Oral Cavity Carcinoma). In short, it runs like this: as §1
Test [5] deals with UM-UC-3 (Bladder Carcinoma). In short, it runs like this: as §1
For test [6], the system named is ME-1 (Acute Myeloid Leukemia). The procedure, abridged:
as §1

Test [7] has as its system TE-15 (Esophageal Squamous Cell Carcinoma). In short, it runs like this:
as §1

Test [8] relates to Ramos-2G6-4C10 (Burkitt's Lymphoma). The procedure, abridged: as §1
Test [9] has as its system KELLY (Neuroblastoma). The procedure, abridged:
as §1

Test [10] concerns Hs-578-T (Breast Carcinoma). In short, it runs like this:
as §1

The test system of test [11] is NCI-H82 (Small Cell Lung Carcinoma). The procedure, abridged: as §1
For test [12], the system named is HCC-78 (Lung Adenocarcinoma). In short, it runs like this: as §1
Test [13] has as its system DoTc2-4510 (Cervical Carcinoma). The procedure, abridged:
as §1

Test [14] has as its system LB831-BLC (Bladder Carcinoma). The procedure, abridged: as §1
Test [15] concerns CaR-1 (Colorectal Carcinoma). In short, it runs like this: as §1
Test [16] deals with LS-180 (Colorectal Carcinoma). The procedure, abridged:
as §1

Test [17] concerns CCRF-CEM (T-Lymphoblastic Leukemia). The procedure, abridged:
as §1

Test [18] relates to RO82-W-1 (Thyroid Gland Carcinoma). In short, it runs like this: as §1
Test [19] concerns NB10 (Neuroblastoma). In short, it runs like this: as §1
Test [20] concerns TE-9 (Esophageal Squamous Cell Carcinoma). The procedure, abridged: as §1

For the compound `CC1(C)CCC(CN2CCN(c3ccc(C(=O)NS(=O)(=O)c4ccc(NCC5CCOCC5)c([N+](=O)[O-])c4)c(Oc4cnc5[nH]ccc5c4)c3)CC2)=C(c2ccc(Cl)cc2)C1` [Venetoclax] + CS(=O)(=O)CCNCc1ccc(-c2ccc3ncnc(Nc4ccc(OCc5cccc(F)c5)c(Cl)c4)c3c2)o1 [Lapatinib] (first compound max 1 µM, 7x7, partner max 10 µM), the Bliss excess is -0.0237 in test [1]; -0.0267 in test [2]; -0.0529 in test [3]; -0.0212 in [4]; -0.0207 in test [5]; 0.0267 in test [6]. Moreover, the Bliss excess in test [7] is -0.0478; in test [8] it was 0.0377; in [9], 0.0417; in [10], -0.0054; in test [11], -0.0384; in test [12], -0.0248. The Bliss excess was -0.0509 in [13]; -0.0597 in test [14]; -0.0553 in test [15]; -0.0428 in test [16]; 0.0013 in test [17]; -0.0299 in test [18]. Further, the Bliss excess in test [19] is -0.0238; in [20], -0.0254.
As for `CN(CCO)CC[C@H](CSc1ccccc1)Nc1ccc(S(=O)(=O)NC(=O)c2ccc(N3CCC([C@@H](O)c4ccccc4-c4ccc(Cl)cc4)CC3)cc2)cc1S(=O)(=O)C(F)(F)F` [AZD4320] + CC(=O)O[C@H]1C(=O)[C@@]2(C)[C@H]([C@H](OC(=O)c3ccccc3)[C@]3(O)C[C@H](OC(=O)[C@H](O)[C@@H](NC(=O)c4ccccc4)c4ccccc4)C(C)=C1C3(C)C)[C@]1(OC(C)=O)CO[C@@H]1C[C@@H]2O [Paclitaxel] (first compound max 1 µM, 7x7, partner max 3 µM), the Bliss excess in [1] is 0.0761; in test [2] it was 0.207; in test [3], -0.0045; in test [4], 0.0178; in test [5] it was 0.192; in [6], 0.0994. Moreover, the Bliss excess in test [7] is 0.0118; in [8] it was -0.151; in test [9] it was -0.0068; in test [10], 0.047; in [11], -0.0552; in [12], 0.168. For the same compound, the Bliss excess in [13] was 0.111; in [14], 0.104; in test [15] it was 0.0892; in test [16], -0.0382; in test [17] it was -0.0072; in test [18] it was 0.332. Further, the Bliss excess in test [19] amounted to 0.0462; in test [20], 0.0929.
Regarding `N#Cc1cnc(Nc2cc(NC[C@H]3CNCCO3)c(C(F)(F)F)cn2)cn1` [SRA737] + Nc1ccn([C@@H]2O[C@H](CO)[C@@H](O)C2(F)F)c(=O)n1 [Gemcitabine] (first compound max 10 µM, 7x7, partner max 0.3 µM), the Bliss excess was 0.0721 in test [1]; -0.0192 in test [2]; 0.0286 in test [3]; 0.015 in test [4]; 0.0629 in test [5]; 0.0803 in test [6]. Further, the Bliss excess in test [7] is 0.0703; in test [8], 0.149; in test [9] it was 0.0213; in test [10], 0.0695; in test [11] it was -0.0231; in test [12], 0.0509. In addition, the Bliss excess is 0.135 in test [13]; 0.0477 in test [14]; -0.0167 in test [15]; -0.0884 in [16]; 0.0316 in test [17]; -0.0037 in [18]. Also, the Bliss excess is 0.0922 in test [19] and 0.0126 in test [20].
For `C[C@@H](Nc1cc(F)cc(F)c1)c1cc(C(=O)N(C)C)cc2c(=O)cc(N3CCOCC3)oc12` [AZD8186] + CC(=O)c1c(C)c2cnc(Nc3ccc(N4CCNCC4)cn3)nc2n(C2CCCC2)c1=O [Palbociclib] (first compound max 10 µM, 7x7, partner max 10 µM), the Bliss excess in test [1] is 0.033; in test [2], 0.0565; in test [3], -0.0036; in test [4], 0.0805; in [5], 0.131; in test [6], 0.0065. For the same compound, the Bliss excess in test [7] was -0.0044; in test [8], -0.0328; in test [9], 0.0897; in [10], -0.0091; in test [11], -0.0338; in test [12], 0.0329. Besides, the Bliss excess in test [13] is -0.0639; in [14], -0.0414; in test [15] it was -0.0054; in [16] it was 0.0004; in [17], -0.0167; in test [18] it was 0.033. Also, the Bliss excess is 0.0425 in test [19] and -0.0589 in test [20].
Consider `C=CCn1c(=O)c2cnc(Nc3ccc(N4CCN(C)CC4)cc3)nc2n1-c1cccc(C(C)(C)O)n1` [AZD1775] + Nc1ccn([C@@H]2O[C@H](CO)[C@@H](O)C2(F)F)c(=O)n1 [Gemcitabine] (first compound max 1 µM, partner max 0.3 µM), for which the Bliss excess in [1] is 0.0035; in test [2], 0.032; in [3], -0.013; in test [4], 0.0188; in [5], 0.0758; in test [6], -0.0044. Further, the Bliss excess in test [7] is 0.042; in test [8] it was 0.186; in test [9], 0.0306; in test [10], 0.045; in test [11], -0.0404; in test [12] it was 0.0795. Further, the Bliss excess in [13] is 0.033; in test [14] it was 0.0909; in test [15], -0.0001; in [16] it was -0.0906; in test [17] it was 0.0584; in test [18], -0.0271. Moreover, the Bliss excess in test [19] was 0.0509; in [20], -0.0253.

For the origin of these results see the supplement of paper PMC11061612.
